Reference: ChEMBL document CHEMBL5050861 (2021)
Converted amounts (≈) assume the structure as drawn.

What was measured:
[1] = Inhibition of recombinant mouse GALK1 using ATP as substrate incubated for 1 hr and measured by Kinase-Glo assay; conditions: read-out: IC50
[2] = Permeability of compound by PAMPA assay; assay type: ADME; conditions: read-out: permeability
[3] = Kinetic aqueous solubility of the compound; assay type: physicochemical; conditions: buffer; read-out: Kinetic_solubility
[4] = Stability of compound in rat microsomes assessed as half-life; assay type: ADME, Microsome

Compound	IC50 [1] [µM]	Papp [2] [×10⁻⁶ cm/s]	solubility kinetic [3] [µg/mL]	half-life [4] [min]
CC1=C(C(=O)Nc2cc(C#N)ccn2)C(c2ccccc2Cl)N=C(Nc2nc3ccc(F)cc3o2)N1 (configuration not stated)	4.85	< 6.8	< 1	> 30
CC1=C(C(=O)Nc2cc(B(O)O)ccn2)C(c2ccc(C)cc2Cl)N=C(Nc2nc3ccc(F)cc3o2)N1 (configuration not stated)	10.9	< 3.2	< 1	14.1
CNCCNC(=O)C1=C(C)NC(Nc2nc3ccc(F)cc3o2)=NC1c1ccccc1Cl (configuration not stated)	6.11	> 30	> 67	–
CC1=C(C(=O)NCc2ccc(C(=O)O)cc2)C(c2ccccc2Cl)N=C(Nc2nc3ccccc3o2)N1 (configuration not stated)	10.9	< 1	47 (≈ 91.1 µM)	> 30
CC1=C(C(=O)Nc2cc(C(=O)O)ccn2)[C@@H](c2ccc(C)cc2Cl)N=C(Nc2nc3ccc(F)cc3o2)N1	6.85	< 1	53.8 (≈ 101 µM)	> 30
O=C1CC(C(=O)NCCO)CC2=C1C(c1ccccc1Cl)N=C(Nc1nc3ccccc3o1)N2 (configuration not stated)	5.44	< 2	29 (≈ 60.4 µM)	> 30
CC1=C(C(=O)Nc2cc(C(=O)O)ccn2)C(c2ccc(-n3ccnc3)cc2Cl)N=C(Nc2nc3ccc(F)cc3o2)N1 (configuration not stated)	0.97	< 1	> 87	> 30
CC1=C(C(=O)Nc2cc(C(=O)O)ccn2)C(c2ccccc2Cl)N=C(Nc2nc3c(N)cccc3o2)N1 (configuration not stated)	30.6	< 1	> 76	> 30
CN(C)CCNC(=O)C1CC(=O)C2=C(C1)NC(Nc1nc3ccccc3o1)=NC2c1ccccc1Cl (configuration not stated)	12.2	< 9.8	61.8 (≈ 122 µM)	> 30
CC1=C(C(=O)Nc2cc(C(=O)O)ccn2)C(c2ccc(-c3ccc(C(F)(F)F)nc3)cc2Cl)N=C(Nc2nc3ccc(F)cc3o2)N1 (configuration not stated)	3.85	< 1	28.6 (≈ 42.9 µM)	> 30
CC1=C(C(=O)NCc2ccccc2O)C(c2ccccc2Cl)N=C(Nc2nc3ccccc3o2)N1 (configuration not stated)	10.9	< 19.3	–	5.19
COC(=O)c1ccnc(NC(=O)C2=C(C)NC(Nc3nc4ccc(F)cc4o3)=N[C@@H]2c2ccccc2Cl)c1	86.3	< 7.4	–	24.3
CC1=C(C(=O)Nc2ccc(O)cc2)C(c2ccccc2Cl)N=C(Nc2nc3ccccc3o2)N1 (configuration not stated)	9.68	< 14.5	–	> 30
CC1=C(C(=O)Nc2cc(C(=O)O)ccn2)C(c2ccc(-c3ccccc3)cc2Cl)N=C(Nc2nc3ccc(F)cc3o2)N1 (configuration not stated)	–	< 4.9	< 1	> 30
COC(=O)c1ccnc(NC(=O)C2=C(C)NC(Nc3nc4ccc(F)cc4o3)=N[C@H]2c2ccccc2Cl)c1	4.32	< 21.9	–	30.9
CC1=C(C(=O)Nc2cccc(CN)c2)C(c2ccccc2Cl)N=C(Nc2nc3ccccc3o2)N1 (configuration not stated)	6.85	–	37.5 (≈ 77 µM)	> 30
O=C(Nc1nncs1)C1=C(C(F)(F)F)NC(Nc2nc3ccccc3o2)=NC1c1ccccc1Cl (configuration not stated)	17.2	–	21.9 (≈ 42.1 µM)	> 30
COc1ccc(C2N=C(Nc3nc4cccc(N)c4o3)NC(C)=C2C(=O)Nc2cc(C(=O)O)ccn2)c(Cl)c1 (racemic)	> 1.93	–	> 81	> 30
CC1=C(C(=O)Nc2ccccn2)C(c2ccccc2Cl)N=C(Nc2nc3ccccc3o2)N1 (configuration not stated)	10.9	–	< 1	> 30
COC(=O)c1ccnc(NC(=O)C2=C(C)NC(Nc3nc4ccccc4o3)=N[C@H]2c2ccccc2Cl)c1	6.85	–	< 1	20
O=C(Nc1nncs1)C1=C(c2cnccn2)NC(Nc2nc3ccccc3o2)=NC1c1ccccc1Cl (configuration not stated)	21.7	–	2.1 (≈ 3.96 µM)	> 30
